21 molecules from patent US7202239B2, “Cyclohexylphenyl carboxamides tocolytic oxytocin receptor antagonists” (Wyeth, priority 2001, dated 2007) can be followed below.

SMILES strings stand for the structures. Bounds are passed on as bounds.

For the test, the target named is human V2 vasopressin receptor subtype (Homo sapiens, UniProt P30518). Kind of test: Vasopressin binding in CHO cell membranes expressing human vasopressin V2 subtype receptors. As to conditions: [3H]arginine vasopressin; for inhibition at 0.1 µM / V2 % inhibition at 100 nM: 100 nM; for IC50: value in parentheses. The text has this:
Vasopressin Binding in Chinese Hamster Ovary Cell Membranes Expressing Human Vasopressin V2 Subtype Receptors
Chinese Hamster Ovary (CHO) cells stably transfected with the human V2 subtype receptors were obtained from M. Thibonnier, Case Western Reserve University School of Medicine, Cleveland, Ohio.
A. Passaging and Amplification of Cells:
CHO cells transfected with the human vasopressin V2 subtype receptors obtained from M. Thibonnier (pZeoSV vector) are allowed to grow to confluency (approx. >90%) in T-150 flasks under sterile conditions, in a cell culture medium of F-12 Nutrient Mixture (HAM) with L-glutamine (Gibco Cat. # 11765-054) containing 15 mM HEPES (Gibco Cat. # 15630-080), 1% antibiotic/antimycotic (add 5 mL 100×, Gibco Cat. # 15240-062 per 500 mL F-12), 250 μg/mL Zeocin (add 1.25 mL of 100 mg/mL Invitrogen R-250-01 per 500 mL F-12) and 10% Fetal Bovine Serum (Qualified, heat inactivated, Gibco Cat. # 16140-063). The medium is removed by aspiration and the cells washed with 10 mL of Hank's Balanced Salt solution (Gibco Cat. # 14175-095). The salt solution is removed by aspiration and the cells trypsinized with 5 mL of trypsin-EDTA (0.05% trypsin, 0.53 mM EDTA-4Na, Gibco Cat. # 25300-070) for 1 min. The trypsin is removed by aspiration and the cells dislodged by tapping. Cell Culture medium (e.g. 30 mL for 1:30 split) is immediately added and mixed well to inactivate trypsin. 1 mL of detached cells is added to new culture flasks containing fresh Cell Culture medium (e.g. into 25 mL per T-150 flask), and mixed gently. The cells are incubated at 37° C. in 5% CO2. The medium is changed at 3 to 4 day interval (or as appropriate). The cells grow to confluency (approx. >75%–95%) within 7–8 days. All steps are done under sterile conditions. B. Membrane Preparation: The cells are washed twice gently with Hank's Balanced Salt solution (e.g. use 10 mL per T-150 flask). The excess solution is removed and the cells bathed for 15–30 min. in an enzyme-free Cell Dissociation Buffer (e.g. use 8 mL Hank's Based, Gibco Cat. # 13150-016 per T-150 flask) until cells are loosened. The contents are transferred to centrifuge tubes (50 mL) kept in an ice bath. All subsequent steps are done at 4° C. The tubes are centrifuged at 300× g for 15 min (1380 rpm on SORVAL, Model RT6000D, using the rotor for 50 mL tubes). The supernatant is discarded and the cells suspended in homogeneizing buffer(10 mM Tris-HCl containing 0.25 M sucrose and 1 mM EDTA, pH 7.4) ensuring that the volume of the buffer is about ten times the volume of the cell pellet. The cells are pooled into a centrifuge tube (50 mL) and homogenized with a Polytron at setting 6 for 10 sec. The homogenate is transferred into a Potter-Elvjehm homogeneizer and homogenized with 3 strokes. The homogenate is centrifuged at 1500×g for 60 min at 4° C. (3100 rpm using SORVAL, model RT6000D, using the rotor for 50 mL tubes). The pellet is discarded. The supernatant is centrifuged at 100,000×g for 60 min. at 4° C. (Beckman L8-80M ultracentrifuge; spin at 37,500 rpm with rotor type 70 Ti for 50 mL tubes; 38,000 rpm with type 80Ti for 15 mL tubes; or 35,800 rpm with rotor type 45Ti). The supernantant is discarded and the pellet suspended in 3 to 4 mL of Tris buffer (50 mM TRIS-HCl, pH 7.4). The protein content is estimated by the Bradford or Lowry method. The volume of the membrane suspension is adjusted with the membrane buffer (50 mM Tris-HCl containing 0.1% BSA and 0.1 mM PMSF) to give 3.0 mg/mL (or as appropriate) of protein. The membranes are aliquoted and stored at −70° C. C. Radioligand Binding Assay: In wells of a 96-well format microtiter plate, is added 90, 110 or 130 μL (to make up a final volume of 200 μL) of assay buffer containing 50 mM of Tris-HCl (pH 7.4), […], 1 mg % aprotinin, 1 mg % leupeptin, 2 mg % 1,10-phenanthroline, 10 mg % trypsin inhibitor, and 0.1 mM PMSF. The inhibitors are added on the day of the experiment. […]

human V2 vasopressin receptor subtype, sequence (P30518 whole entry): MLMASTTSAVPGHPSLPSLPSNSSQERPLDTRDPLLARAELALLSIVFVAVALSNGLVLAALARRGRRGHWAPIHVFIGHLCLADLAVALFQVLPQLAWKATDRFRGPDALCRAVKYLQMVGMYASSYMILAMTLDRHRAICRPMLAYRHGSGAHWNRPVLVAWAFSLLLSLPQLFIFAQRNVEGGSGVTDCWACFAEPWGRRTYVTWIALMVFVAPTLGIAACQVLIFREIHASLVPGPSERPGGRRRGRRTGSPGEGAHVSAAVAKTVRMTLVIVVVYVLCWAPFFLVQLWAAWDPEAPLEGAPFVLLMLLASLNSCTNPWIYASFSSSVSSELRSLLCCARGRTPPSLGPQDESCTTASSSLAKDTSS

`CN(Cc1cccnc1)C(=O)c1ccc2n1Cc1ccccc1N(C(=O)c1ccc(C3CCCCC3)cc1)C2` [Example 57, 10-(4-Cyclohexyl-benzoyl)-N-methyl-N-(3-pyridinylmethyl)-10,11-dihydro-5H-pyrrolo[2,1-c][1,4]benzodiazepine-3-carboxamide]: the inhibition (as a rule, the drop in the measured response relative to a control, in per cent) at 0.1 µM was 4%.
For `COc1ccc(NC(=O)c2ccc3n2Cc2ccccc2N(C(=O)c2ccc(C4CCCCC4)cc2)C3)cc1` [Example 29, 10-(4-Cyclohexyl-benzoyl)-10,11-dihydro-5H-pyrrolo[2,1-c][1,4]benzodiazepine-3-carboxylic acid (4-methoxy-phenyl)-amide], the inhibition at 0.1 µM worked out at 8%.
Turning to `CN(C)/C=C/C(=O)c1ccc2n1Cc1ccccc1N(C(=O)c1ccc(C3CCCCC3)cc1)C2` [Example 20, (E)-1-[10-(4-Cyclohexyl-benzoyl)-10,11-dihydro-5H-pyrrolo[2,1-c][1,4]benzodiazepin-3-yl]-3-(dimethylamino)-2-propen-1-one], the inhibition at 0.1 µM amounted to 11%.
Take `O=C(NCc1cccnc1)c1ccc2n1Cc1ccccc1N(C(=O)c1ccc(C3CCCCC3)cc1)C2` [Example 51, 10-(4-Cyclohexyl-benzoyl)-N-(3-pyridinylmethyl)-10,11-dihydro-5H-pyrrolo [2,1-c][1,4]benzodiazepine-3-carboxamide]: the inhibition at 0.1 µM was found to be 7%.
Turning to `O=C(O)c1ccc2n1Cc1ccccc1N(C(=O)c1ccc(C3CCCCC3)cc1)C2` [Example 22, 10-(4-Cyclohexyl-benzoyl)-10,11-dihydro-5H-pyrrolo[2,1 c][1,4]benzodiazepine-3-carboxylic acid], the “V2 % inhibition at 100 nM” value worked out at 19%.
For `CN(C)CCN1CCN(C(=O)c2ccc3n2Cc2ccccc2N(C(=O)c2ccc(C4CCCCC4)cc2)C3)CC1` [Example 41, [10-(4-Cyclohexyl-benzoyl)-10,11-dihydro-5H-pyrrolo[2,1-c][1,4]benzodiazepin-3-yl]{4-[2-(dimethylamino)ethyl]-1-piperazinyl}methanone], the inhibition at 0.1 µM came to 6%.
Take `Cc1ccccc1C(=O)NNC(=O)c1ccc2n1Cc1ccccc1N(C(=O)c1ccc(C3CCCCC3)cc1)C2` [Example 12, 10-(4-Cyclohexyl-benzoyl)-N′-(2-methylbenzoyl)-10,11-dihydro-5H-pyrrolo[2,1-c][1,4]benzodiazepine-3-carbonyl-hydrazide]: the “V2 % inhibition at 100 nM” value worked out at 7%.
Turning to `CN1CCCN(C(=O)c2ccc3n2Cc2ccccc2N(C(=O)c2ccc(C4CCCCC4)cc2)C3)CC1` [Example 30, [10-(4-Cyclohexyl-benzoyl)-10,11-dihydro-5H-pyrrolo[2,1-c][1,4]benzodiazepin-3-yl](4-methyl-[1,4]-diazepan-1-yl)-methanone], the inhibition at 0.1 µM stood at 15%.
Still for that read-out and setting: the figure for `O=C(NCCCn1ccnc1)c1ccc2n1Cc1ccccc1N(C(=O)c1ccc(C3CCCCC3)cc1)C2` [Example 36, 10-(4-Cyclohexyl-benzoyl)-N-[3-(1H-imidazol-1-yl)propyl]-10,11-dihydro-5H-pyrrolo[2,1-c][1,4]benzodiazepine-3-carboxamide] is 1%; for `C=CCN1CCN(C(=O)c2ccc3n2Cc2ccccc2N(C(=O)c2ccc(C4CCCCC4)cc2)C3)CC1` [Example 43, (4-Allyl-1-piperazinyl)[10-(4-cyclohexyl-benzoyl)-10,11-dihydro-5H-pyrrolo[2,1-c][1,4]benzodiazepin-3-yl]methanone] it is 8%.
For the molecule `CC(=O)NNC(=O)c1ccc2n1Cc1ccccc1N(C(=O)c1ccc(C3CCCCC3)cc1)C2` [Example 11, N′-Acetyl-10-(4-cyclohexyl-benzoyl)-10,11-dihydro-5H-pyrrolo[2,1-c][1,4]benzodiazepine-3-carbonyl-hydrazide], the IC50 – broadly, the concentration at which inhibition is half-maximal – is over 1 µM.
As for `CN(N)C(=O)c1ccc2n1Cc1ccccc1N(C(=O)c1ccc(C3CCCCC3)cc1)C2` [Example 21, 10-(4-Cyclohexyl-benzoyl)-N-methyl-10,11-dihydro-5H-pyrrolo[2,1-c][1,4]benzodiazepine-3-carboxylic acid hydrazide], the inhibition at 0.1 µM worked out at 13%.
As to `O=C(c1ccc(C2CCCCC2)cc1)N1Cc2ccc(C(=O)n3ccnc3)n2Cc2ccccc21` [Example 56, 1H-Imidazol-1-yl-[10-(4-cyclohexyl-benzoyl)-10,11-dihydro-5H-pyrrolo[2,1-c][1,4]benzodiazepin-3-yl]-methanone], the inhibition at 0.1 µM is -2%.
On to `O=C(NNC(=O)C1CC1)c1ccc2n1Cc1ccccc1N(C(=O)c1ccc(C3CCCCC3)cc1)C2` [Example 13, 10-(4-Cyclohexyl-benzoyl)-N′-(cyclopropylcarbonyl)-10,11-dihydro-5H-pyrrolo[2,1-c][1,4]benzodiazepine-3-carbonyl-hydrazide], for which the “V2 % inhibition at 100 nM” value is reported as 18%.
On to `CN(CCc1ccncc1)C(=O)c1ccc2n1Cc1ccccc1N(C(=O)c1ccc(C3CCCCC3)cc1)C2` [Example 55, 10-(4-Cyclohexyl-benzoyl)-N-methyl-N-[2(4-pyridinyl)ethyl]-10,11-dihydro-5H-pyrrolo[2,1-c][1,4]benzodiazepine-3-carboxamide], for which the inhibition at 0.1 µM came out at 6%.
Regarding `Cc1ccccc1N1CCN(C(=O)c2ccc3n2Cc2ccccc2N(C(=O)c2ccc(C4CCCCC4)cc2)C3)CC1` [Example 27, [10-(4-Cyclohexyl-benzoyl)-10,11-dihydro-5H-pyrrolo[2,1-c][1,4]benzodiazepin-3-yl][4-(2-methylphenyl)-1-piperazinyl]-methanone], the inhibition at 0.1 µM was 9%.
As for `O=C(C(=O)N1CCC(N2CCCCC2)CC1)c1ccc2n1Cc1ccccc1N(C(=O)c1ccc(C3CCCCC3)cc1)C2` [Example 31, 1-[1.4′]Bipiperidinyl-1′-yl-2-[10-(4-cyclohexyl-benzoyl)-10,11-dihydro-5H-pyrrolo[2,1-c][1,4]benzodiazepin-3-yl]-ethane-1,2-dione], the “V2 % inhibition at 100 nM” value came out at 2%.
Turning to `CN(C)NC(=O)c1ccc2n1Cc1ccccc1N(C(=O)c1ccc(C3CCCCC3)cc1)C2` [Example 19, 10-(4-Cyclohexyl-benzoyl)-N′-N′-dimethyl-10,11-dihydro-5H-pyrrolo[2,1-c][1,4]benzodiazepine-3-carbohydrazide], the IC50 was over 1 µM.
For the molecule `O=C(NCc1ccccn1)c1ccc2n1Cc1ccccc1N(C(=O)c1ccc(C3CCCCC3)cc1)C2` [Example 50, 10-(4-Cyclohexyl-benzoyl)-N-(2-pyridinylmethyl)-10,11-dihydro-5H-pyrrolo[2,1-c][1,4]benzodiazepine-3-carboxamide], the inhibition at 0.1 µM stood at 15%.
`O=C(NCc1ccncc1)c1ccc2n1Cc1ccccc1N(C(=O)c1ccc(C3CCCCC3)cc1)C2` [Example 53, 10-(4-Cyclohexyl-benzoyl)-N-(4-pyridinylmethyl)-10,11-dihydro-5H-pyrrolo[2,1-c][1,4]benzodiazepine-3-carboxamide]: the inhibition at 0.1 µM stood at 2%.
Consider `CN1CCC(N(C)C(=O)c2ccc3n2Cc2ccccc2N(C(=O)c2ccc(C4CCCCC4)cc2)C3)C1` (stereo not drawn) [Example 40, 10-(4-Cyclohexyl-benzoyl)-N-methyl-N-(1-methyl-3-pyrrolidinyl)-10,11-dihydro-5H-pyrrolo[2,1-c][1,4]benzodiazepine-3-carboxamide], for which the inhibition at 0.1 µM was -3%.
